Laboratory results published in publication PMC9674958 (Proceedings of the National Academy of Sciences of the …, 2022).

Key:
[1] = test system: tyrosinase (TYR) of Q. spinosa; assay: absorbance at […] nm, Lineweaver-Burk fit; assay type: biochemical, Quasipaa spinosa; conditions: 15 uM CuSO4, 50 mM Na2HPO4, pH 6.2; L-DOPA 0.625-10 mM
[2] = test system: tyrosinase (TYR) of N. parkeri; assay: absorbance at […] nm, Lineweaver-Burk fit; assay type: biochemical, Nanorana parkeri; conditions: 15 uM CuSO4, 50 mM Na2HPO4, pH 6.2; L-DOPA 0.625-10 mM

Km [1]: 0.1663 ± 0.117 mM/L
Km [2]: 0.130 ± 0.073 mM/L
SMILES: N[C@@H](Cc1ccc(O)c(O)c1)C(=O)O [L-DOPA]
